Experimental data as given in ChEMBL document CHEMBL1156096, “Synthesis and antitubercular activity of 7-chloro-4-quinolinylhydrazones derivatives” (Bioorg Med Chem Lett, 2009).
In brackets after ≈: the same amount, converted by molar mass.

Key:
[1] = test system: Mycobacterium tuberculosis; test: Antimycobacterial activity against Mycobacterium tuberculosis H37Rv ATCC 27294 by microplate alamar blue assay; type: functional
[2] = Cytotoxicity against mouse J774 cells infected with Mycobacterium bovis BCG assessed as cell viability at 10 ug/ml by MTT assay; type: cell-based; conditions: read-out: Activity
[3] = Cytotoxicity against mouse J774 cells infected with Mycobacterium bovis BCG assessed as cell viability at 1 ug/ml by MTT assay; type: cell-based; conditions: read-out: Activity
[4] = Cytotoxicity against mouse J774 cells assessed as cell viability at 100 ug/ml by MTT assay; type: cell-based; conditions: read-out: Activity
[5] = Cytotoxicity against mouse J774 cells infected with Mycobacterium bovis BCG assessed as cell viability at 100 ug/ml by MTT assay; type: cell-based; conditions: read-out: Activity
[6] = Cytotoxicity against mouse J774 cells assessed as cell viability at 10 ug/ml by MTT assay; type: cell-based; conditions: read-out: Activity
[7] = Cytotoxicity against mouse J774 cells assessed as cell viability at 1 ug/ml by MTT assay; type: cell-based; conditions: read-out: Activity

Q: With `Fc1cccc(/C=N/Nc2ccnc3cc(Cl)ccc23)c1` as the molecule, how does the MIC [1] read?
A: The MIC was > 100 µg/mL.

Q: With `Clc1ccc2c(N/N=C/c3ccccc3)ccnc2c1` as the molecule, how does the MIC [1] read?
A: Its MIC is > 100 µg/mL.

Q: With `O=[N+]([O-])c1cccc(/C=N/Nc2ccnc3cc(Cl)ccc23)c1` as the molecule, how does the MIC [1] read?
A: The MIC was > 100 µg/mL.

Q: What does the source list for `Clc1ccc2c(N/N=C/c3ccc(Br)cc3)ccnc2c1`?
A: viability at 10 ug/ml [2]: 100%; MIC [1]: 2.5 µg/mL (≈ 6.93 µM); viability at 1 ug/ml [3]: 100%; viability at 100 ug/ml [4]: 91%; viability at 100 ug/ml [5]: 85%; viability at 10 ug/ml [6]: 100%; viability at 1 ug/ml [7]: 100%

Q: Which MIC [1] does the source give for `O=[N+]([O-])c1ccccc1/C=N/Nc1ccnc2cc(Cl)ccc12` here?
A: The MIC was > 100 µg/mL.

Q: Which MIC [1] does the source give for `O=[N+]([O-])c1ccc(/C=N/Nc2ccnc3cc(Cl)ccc23)cc1` here?
A: The MIC was > 100 µg/mL.

Q: Which results are given for `CC[C@@H](CO)NCCN[C@@H](CC)CO` [ETHAMBUTOL]?
A: MIC [1]: 3.25 µg/mL (≈ 15.9 µM); viability at 1 ug/ml [7]: 100%

Q: Which MIC [1] does the source give for `Clc1ccc2c(N/N=C/c3ccccc3Br)ccnc2c1` here?
A: The MIC was > 100 µg/mL.

Q: Which MIC [1] does the source give for `Clc1ccc2c(N/N=C/c3cccc(Br)c3)ccnc2c1` here?
A: The MIC was 3.12 µg/mL (≈ 8.65 µM).

Q: What about the viability at 100 ug/ml [4] of the same molecule?
A: Its viability at 100 ug/ml is 3%.

Q: What about the viability at 10 ug/ml [6] of the same molecule?
A: Its viability at 10 ug/ml is 60%.

Q: What about the viability at 1 ug/ml [7] of the same molecule?
A: The viability at 1 ug/ml was 88%.

Q: With `N#Cc1ccc(/C=N/Nc2ccnc3cc(Cl)ccc23)cc1` as the molecule, how does the MIC [1] read?
A: Its MIC is > 100 µg/mL.

Q: Which MIC [1] does the source give for `Oc1cccc(/C=N/Nc2ccnc3cc(Cl)ccc23)c1` here?
A: The MIC was > 100 µg/mL.
